From patent US20240092756A1, “METHODS AND COMPOSITION FOR KRAS MODIFICATIONS” (2692372 ONTARIO, INC., priority 2020, published 2024)

The compounds below were run on phospho-ERK1/2 in MIA PaCa-2 cells (express KRAS G12C) (assay: ERK1/2 phosphorylation in MIA PaCa-2 cells). Conditions: not given.
Assay type: cell-based, human
Design: key: X: KRAS G12C bound and modulated in cells
Experimental: MIA PaCa-2 cells were cultured in Dulbecco's Modified Eagle's Medium (Wisent) supplemented with 10% FBS, 2.5% horse serum, and 1% penicillin/streptomycin. Cells were seeded in 6-well plates at 500,000 cells/well and incubated at 37° C., 5% CO2 for 16 hours. Cells were treated with the indicated concentrations of compound or DMSO alone and incubated at 37° C., 5% CO2 for 6 or 24 hours. Conditioned media was discarded, and adherent cells were washed with PBS before they were scraped. Cell suspensions were centrifugated at 2,000 RPM for 5 minutes at 4° C. and supernatants were discarded. Cell pellets were resuspended with 1×RIPA buffer (Millipore) and incubated on ice for 15 minutes. Protein lysates were extracted by centrifugating at 20,000 RPM for 20 minutes at 4° C. Proteins were separated and total KRas protein levels were quantified by Simple Western Immunoassay (ProteinSimple) using the 2-40 kDa Separation Module for Jess according to the manufacturer's protocol, using a protein concentration of 0.5 μg/μl and antibodies targeting KRas (clone #4F3, Sigma) and GAPDH (clone #14C10, Cell Signaling) diluted to 1:10 and 1:1600, respectively, where the latter was used as a loading control. A 3:1 ratio of rabbit to mouse HRP-conjugated secondary antibodies was used for detection. KRas protein levels were quantified relative to GAPDH loading levels and subsequently normalized to the DMSO control. Phosphorylated ERK1/2 levels were quantified by Simple Western Immunoassay (ProteinSimple) using the Protein Normalization Assay Module for Jess according to the manufacturer's protocol using a protein concentration of 0.5 μg/μl and an antibody targeting phosphor-ERK1/2 (clone #D13.14.4E, Cell Signalling) diluted to 1:10. Phosphorylated ERK1/2 levels were normalized to the Jess Protein Normalization Reagent loading control and subsequently to the DMSO control.
MIA PaCa-2 cells were cultured in Dulbecco's Modified Eagle's Medium (Wisent) supplemented with 10% FBS, 2.5% horse serum, and 1% penicillin/streptomycin. Cells were seeded in 96-well plates at a density of 25,000 cells/well and incubated at 37° C., 5% CO2 for 24 hours. The next day, cells were starved in cell culture media containing 1% FBS only at 37° C., 5% CO2 for 16 hours. Following starvation, serially-diluted compounds or DMSO alone were added to cells and incubated at 37° C., 5% CO2 for 1 or 3 hours. Prior to cell lysis, 25 ng/ml human epidermal growth factor (hEGF) (Sigma) was added to the cells and incubated at 37° C., 5% CO2 for 10 minutes. Conditioned media was discarded, and adherent cells lysed and basal ERK1/2 phosphorylation levels were measured using the Phospho-ERK (Thr202/Tyr204) Cellular HTRF kit (Perkin Elmer) according to the manufacturer's protocol. The fluorescent signal of the acceptor antibody at a wavelength of 665 nm was normalized to that of the donor antibody at 620 nm. HTRF ratios were plotted and relative IC50 values were obtained using Prism (GraphPad).

Compound	pERK - MIA PaCa-2 - (6 hours, 5 uM)
O=S(=O)(c1c(F)c(F)c(F)c(F)c1C(F)(F)F)N1CCN(c2ncnc3c2CCN(c2cccc4cccc(Cl)c24)C3)CC1 [Compound 32A, 7-(8-chloronaphthalen-1-yl)-4-(4-((2,3,4,5-tetrafluoro-6-(trifluoromethyl)phenyl)sulfonyl)piperazin-1-yl)-5,6,7,8-tetrahydropyrido[3,4-d]pyrimidine]	X
O=S(=O)(c1c(F)c(F)c(F)c(F)c1C(F)(F)F)N1CCN(c2ncnc3c2CCN(c2cccc4ccccc24)C3)CC1 [Compound 33A, 7-(naphthalen-1-yl)-4-(4-((2,3,4,5-tetrafluoro-6-(trifluoromethyl)phenyl)sulfonyl)piperazin-1-yl)-5,6,7,8-tetrahydropyrido[3,4-d]pyrimidine]	X
C[C@H]1CN(c2c(F)c(F)c(F)c(F)c2S(C)(=O)=O)CCN1c1ncnc2cc(-c3ccccc3F)c(Cl)cc12 [Compound 34A, (S)-6-chloro-7-(2-fluorophenyl)-4-(2-methyl-4-(2,3,4,5-tetrafluoro-6-(methylsulfonyl)phenyl)piperazin-1-yl)quinazoline]	X
CS(=O)(=O)c1c(F)c(F)c(F)c(F)c1NC1CN(c2ncnc3cc(-c4ccccc4F)c(Cl)cc23)C1 [Compound 36A, 1-(6-chloro-7-(2-fluorophenyl)quinazolin-4-yl)-N-(2,3,4,5-tetrafluoro-6-(methylsulfonyl)phenyl)azetidin-3-amine]	X
COc1cc(N2CCc3c(ncnc3N3CCN(S(=O)(=O)c4c(F)c(F)c(F)c(F)c4C(F)(F)F)CC3)C2)c2ccccc2c1 [Compound 40A, 7-(3-methoxy-1-naphthyl)-4-[4-[2,3,4,5-tetrakis(fluoranyl)-6-[tris(fluoranyl)methyl]phenyl]sulfonylpiperazin-1-yl]-6,8-dihydro-5H-pyrido[3,4-d]pyrimidine]	X
C[C@H]1CN(Cc2c(F)c(F)c(F)c(F)c2[S+](C)[O-])CCN1c1ncnc2cc(-c3ccccc3F)c(Cl)cc12 (stereo partly drawn) [Compound 46A, 6-chloro-7-(2-fluorophenyl)-4-((2S)-2-methyl-4-(2,3,4,5-tetrafluoro-6-(methylsulfinyl)benzyl)piperazin-1-yl)quinazoline]	X

These compounds were tested against KRAS G12C (Homo sapiens, UniProt P01116, G12C) (assay: SOS1-catalyzed KRAS coupled nucleotide exchange assay (Alpha technology)). Conditions: inhibition of SOS1 mediated KRAS nucleotide exchange.
Assay type: biochemical
Design: His; key: A: KRAS G12C bound and modulated
Experimental: Method I: The inhibition of the SOS1-catalyzed nucleotide exchange activity of KRAS (e.g., KRAS G12C/C118A) was measured using Alpha (Amplified Luminescent Proximity Homogeneous Assay) technology. 20 nM GDP-bound human KRAS (G12C/C118A) protein was incubated with two-fold serially-diluted test compound or DMSO for 5 minutes at ambient temperature in reaction buffer (25 mM HEPES, pH 7.4; 10 mM MgCl2; 0.01% Triton X-100). For all subsequent steps, DTT was added to the reaction buffer at a final concentration of 1 mM. Next, GTP and SOS-1 were added in DTT-reaction buffer at final concentrations of 1.25 mM or 500 nM, respectively, and incubated at RT for 30 minutes. Finally, c-RAF RBD (50 nM final), Alpha glutathione donor beads (PerkinElmer; 20 μg/mL final), and AlphaLISAnickel chelate acceptor beads (PerkinElmer; 20 μg/mL final), all diluted in DTT-reaction buffer, were added. The reaction mixture was incubated at RT for 5 min, and then the plates were read on an EnVision® Multilabel Reader using the AlphaScreen protocol. Luminescence signal was measured at 570 nm following a 180 ms excitation at 680 nm. Signal intensity corresponded with the association of c-RAF RBD with GTP-bound KRAS G12C/C118A and was normalized to DMSO control.
Method II: Inhibition of the SOS1-catalyzed nucleotide exchange activity of KRAS^G12C was measured using Alpha technology (PerkinElmer). 50 nM GDP-bound human KRAS^G12C protein was incubated with serially-diluted compound or DMSO for 2 hrs at RT in RBD-RAS binding buffer (BPSBioscience). 1 mM GTP and 500 nM SOS-1 were added to the reaction mixture and incubated at RT for 30 min. GST-tagged RBD-cRAF was then added to the reaction mixture at a final concentration of 2.5 nM and incubated at RT for 30 min. Finally, Alpha Glutathione acceptor beads and Nickel chelate donor beads (PerkinElmer) were diluted to 1:500 and 1:250, respectively, and added to the reaction mixture. The final reaction was incubated at RT for 30 min. Plates were read on a TECAN SPARK® Multiplate Reader. The luminescence signal was measured at 615 nm following excitation at 680 nm. Signal intensity was normalized to DMSO control.

Compound	KRAS-SOS1 Nucleotide Exchange
C[C@H]1CN(c2c(F)c(F)c(S(C)(=O)=O)c(F)c2F)CCN1c1ccnc2c(F)c(-c3c(O)cccc3F)c(Cl)cc12 (racemic) [Compound 24A, 2-(6-chloro-8-fluoro-4-((S)-2-methyl-4-(2,3,5,6-tetrafluoro-4-(methylsulfonyl)phenyl)piperazin-1-yl)quinolin-7-yl)-3-fluorophenol]	A
Cc1cccc(C)c1-c1cc2nccc(N3CC(Nc4c(F)c(F)c([S@+](C)[O-])c(F)c4F)C3)c2cc1Cl (racemic) [Compound 27A]	A
C[S+]([O-])c1c(F)c(F)c(NC2CN(c3ncnc4cc(-c5ccccc5F)c(Cl)cc34)C2)c(F)c1F (racemic) [Compound 28A, 1-(6-chloro-7-(2-fluorophenyl)quinazolin-4-yl)-N-(2,3,5,6-tetrafluoro-4-(methylsulfinyl)phenyl)azetidin-3-amine]	A
C[C@H]1CN(c2c(F)c(F)c(S(C)(=O)=O)c(F)c2F)CCN1c1ccnc2c(F)c(-c3c(O)cccc3F)c(Cl)cc12 (single isomer, unassigned) [Compound 25A]	A
C[C@H]1CN(c2c(F)c(F)c(S(C)(=O)=O)c(F)c2F)CCN1c1ccnc2c(F)c(-c3c(O)cccc3F)c(Cl)cc12 (single isomer, unassigned) [Compound 26A]	A
O=S(=O)(NC1CN(c2ncnc3c2CCN(c2cccc4cccc(Cl)c24)C3)C1)c1c(F)c(F)c(F)c(F)c1F [Compound 21A, N-(1-(7-(8-chloronaphthalen-1-yl)-5,6,7,8-tetrahydropyrido[3,4-d]pyrimidin-4-yl)azetidin-3-yl)-2,3,4,5,6-pentafluorobenzenesulfonamide]	A
Cc1cccc(C)c1-c1cc2nccc(N3CC(Nc4c(F)c(F)c(S(C)(=O)=O)c(F)c4F)C3)c2cc1Cl [Compound 22A, 1-(6-chloro-7-(2,6-dimethylphenyl)quinolin-4-yl)-N-(2,3,5,6-tetrafluoro-4-(methylsulfonyl)phenyl)azetidin-3-amine]	A
CS(=O)(=O)c1c(F)c(F)c(NC2CN(c3ncnc4cc(-c5ccccc5F)c(Cl)cc34)C2)c(F)c1F [Compound 23A, 1-(6-chloro-7-(2-fluorophenyl)quinazolin-4-yl)-N-(2,3,5,6-tetrafluoro-4-(methylsulfonyl)phenyl)azetidin-3-amine]	A
CSc1c(F)c(F)c(N2CCN(c3ccnc4c(F)c(-c5c(O)cccc5F)c(Cl)cc34)[C@@H](C)C2)c(F)c1F [Compound 29A, 2-(6-chloro-8-fluoro-4-((S)-2-methyl-4-(2,3,5,6-tetrafluoro-4-(methylthio)phenyl)piperazin-1-yl)quinolin-7-yl)-3-fluorophenol]	A
O=S(=O)(c1c(F)c(F)c(F)c(F)c1OC(F)F)N1CCN(c2ncnc3c2CCN(c2cccc4ccccc24)C3)CC1 [Compound 30A, 4-(4-((2-(difluoromethoxy)-3,4,5,6-tetrafluorophenyl)sulfonyl)piperazin-1-yl)-7-(naphthalen-1-yl)-5,6,7,8-tetrahydropyrido[3,4-d]pyrimidine]	A
C[C@H]1CN(c2c(F)c(F)c(F)c(F)c2[S+](C)[O-])CCN1c1ncnc2cc(-c3ccccc3F)c(Cl)cc12 (stereo partly drawn) [Compound 38A, 6-chloro-7-(2-fluorophenyl)-4-((2S)-2-methyl-4-(2,3,4,5-tetrafluoro-6-(methylsulfinyl)phenyl)piperazin-1-yl)quinazoline]	A
Cc1cccc(C)c1-c1cc2nccc(N3CCN(Cc4c(F)c(F)c(F)c(F)c4S(C)(=O)=O)C[C@@H]3C)c2cc1Cl [Compound 45A, (S)-6-chloro-7-(2,6-dimethylphenyl)-4-(2-methyl-4-(2,3,4,5-tetrafluoro-6-(methylsulfonyl)benzyl)piperazin-1-yl)quinoline]	A
CSc1c(F)c(F)c(F)c(F)c1N1CC(Nc2ncnc3cc(-c4ccccc4F)c(Cl)cc23)C1 [Compound 47A, 6-chloro-7-(2-fluorophenyl)-N-(1-(2,3,4,5-tetrafluoro-6-(methylthio)phenyl)azetidin-3-yl)quinazolin-4-amine]	A
